Source: paper PMC9841431 (Nucleic Acids Research, 2022)
Values after ≈ are worked out from the molar mass of the structure shown. Where two headings read alike, the source gives them in different places.

Legend:
[1] = system: M. tuberculosis H37Rv; experiment: microbe, parasite or virus in culture; type: cell-based; conditions: for MIC / MIC90: Mycobacterium tuberculosis, H37RV, read-out: M. tuberculosis MIC90
[2] = system: M. bovis BCG cultures; type: cell-based, Mycobacterium bovis BCG
[3] = system: M. tuberculosis H37Rv in infected mouse Bone Marrow-Derived Macrophages; type: cell-based, Mycobacterium tuberculosis; conditions: BMDM; for Reduction of the burden of intracellular bacteria: 32 × MIC
[4] = in vitro; conditions: African green monkey, VERO cells CC50, 72 h exposure, ATP readout
[5] = system: Vero cells; conditions: CC50 (Vero) / MIC90 (replicating M. tuberculosis H37Rv)
[6] = system: Mrx2 mutants; type: biochemical, M. tuberculosis; conditions: enzyme kinetic assay
[7] = system: non-replicating M. tuberculosis H37Rv; type: cell-based, Mycobacterium tuberculosis; conditions: MBC90 NR / MIC90 replicating
[8] = system: sigH and mrx2 expression in M. tuberculosis H37Rv; experiment: sigH and mrx2 transcriptional levels by qRT-PCR upon compound exposure; type: cell-based, Mycobacterium tuberculosis; conditions: 1×, 2×, 4×, 8× MIC90; different time points
[9] = target: Mrx2WT (Mycobacterium tuberculosis, UniProt O53193); experiment: Mrx2 enzyme kinetic assay; type: biochemical, M. tuberculosis; conditions: 10 μM compound, 30 μM enzyme, absorbance at 412 nm
Mrx2WT, sequence (O53193 whole entry): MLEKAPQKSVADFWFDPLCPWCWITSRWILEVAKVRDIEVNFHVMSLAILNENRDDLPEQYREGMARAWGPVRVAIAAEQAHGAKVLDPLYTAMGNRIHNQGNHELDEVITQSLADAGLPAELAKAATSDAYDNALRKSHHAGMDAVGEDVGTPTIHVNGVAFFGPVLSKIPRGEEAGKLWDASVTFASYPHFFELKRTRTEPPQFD

## 1-Butyl-2-nitronaphtho[2,1-b]furan [nNF-C11]
[1]; REMA, H37Rv, median
  MIC90 R[…]. tuberculosis μM (median): 32.89 µM
  MIC90 R[…]. tuberculosis μg/ml (median): 8 µg/mL
[1]; REMA, H37Rv, range
  MIC90 R[…]. tuberculosis μg/ml (range): 8 to 16 µg/mL
[1]; value used for SI in Table 2
  M. tuberculosis MIC90: 8 µg/mL

## O=[N+]([O-])c1cn2c(n1)OC[C@@H](OCc1ccc(OC(F)(F)F)cc1)C2 [PA-824, Pretomanid, reference compound]
[2]
  NO release in treated M. bovis BCG cultures: significant NO release in a concentration dependent manner

## CO[C@H]1/C=C/O[C@@]2(C)Oc3c(C)c(O)c4c(O)c(c(/C=N/N5CCN(C)CC5)c(O)c4c3C2=O)NC(=O)/C(C)=C\C=C\[C@H](C)[C@H](O)[C@@H](C)[C@@H](O)[C@@H](C)[C@H](OC(C)=O)[C@@H]1C [RIF, Rifampicin, reference compound]
[3]; 32 times its MIC
  Concentration needed to achieve a similar level (ca. 2 logs) of intracellular killing: 0.32 μg/ml
[4]
  CC50: 78.2 µg/mL (≈ 95 µM)
[1]
  MIC: 0.01 µg/mL (≈ 0.0122 µM)
[5]
  Selectivity index (SI): 7824.1

## O=[N+]([O-])c1cc2c(ccc3c2ccc2cc([N+](=O)[O-])oc23)o1 [nNF-C1, 2,7-dinitronaphtho[1,2-b:6,5-b']difuran]
[1]
  MIC90: 0.125 µg/mL (≈ 0.419 µM)

## O=[N+]([O-])c1cc2cc3ccc4oc([N+](=O)[O-])cc4c3cc2o1 [nNF-C2, 2,8-Dinitronaphtho[2,1-b:7,6-b']difuran]
[6]
  Activity of Mrx2T25R, Mrx2S46R, Mrx2Y91S, Mrx2H140D and Mrx2R198G against the compound: only residual activity
[3]; 4 times of MIC90 (0.25 μg/ml)
  Reduction of the number of intracellular M. tuberculosis bacteria: ca. 2 logs
[3]
  Reduction of the burden of intracellular bacteria: more than 4 logs
[1]
  MIC90: 0.0625 µg/mL (≈ 0.21 µM)
[7]
  Activity against non-replicating M. tuberculosis in the charcoal assay relative to MIC90 against replicating bacteria: 4–8 times
[8]
  Induction of sigH and mrx2 expression: time and concentration-dependant induction of both genes
[2]
  NO release in treated M. bovis BCG cultures: significant NO release in a concentration dependent manner
[9]
  Metabolism of the compound by Mrx2WT: completely metabolized

## O=[N+]([O-])c1cc2c(ccc3c4cc([N+](=O)[O-])oc4ccc23)o1 [nNF-C3, 2,7-Dinitronaphtho[2,1-b:6,5-b']difuran]
[1]
  MIC: 1 µg/mL (≈ 3.35 µM)

## COC(=O)c1ccc2c(ccc3oc([N+](=O)[O-])cc32)c1 [nNF-C4, Methyl 2-nitronaphtho[2,1-b]furan-7-carboxylate]
[3]; 2 times of MIC90 (0.25 μg/ml)
  Reduction of the number of intracellular M. tuberculosis bacteria: ca. 2 logs
[3]
  Reduction of the burden of intracellular bacteria: more than 4 logs
[1]
  MIC90: 0.125 µg/mL (≈ 0.461 µM)
[7]
  Activity against non-replicating M. tuberculosis in the charcoal assay relative to MIC90 against replicating bacteria: 4–8 times
[2]
  NO release in treated M. bovis BCG cultures: significant NO release in a concentration dependent manner
  Nitrite levels relative to nNF-C2: ~4 times

## N#Cc1ccc2c(ccc3oc([N+](=O)[O-])cc32)c1 [nNF-C5, 2-Nitronaphtho[2,1-b]furan-7-carbonitrile]
[4]
  CC50: 12.5 µg/mL (≈ 52.5 µM)
[1]
  MIC90: 0.25 µg/mL (≈ 1.05 µM)

## O=[N+]([O-])c1cc2c(ccc3cc(Br)ccc32)o1 [nNF-C6, 7-Bromo-2-nitronaphtho[2,1-b]furan]
[1]
  MIC90: 0.5 µg/mL (≈ 1.71 µM)
[5]
  Selectivity index (SI): 182.6

## COc1ccc2c(ccc3oc([N+](=O)[O-])c(C)c32)c1 [nNF-C7, 7-Methoxy-1-methyl-2-nitronaphtho[2,1-b]furan]
[4]
  CC50: 67.5 µg/mL (≈ 262 µM)
[1]
  MIC90: 4 µg/mL (≈ 15.5 µM)

## COc1cc2ccc3oc([N+](=O)[O-])cc3c2cc1OC [nNF-C8, 7,8-Dimethoxy-2-nitronaphtho[2,1-b]furan]
[4]
  CC50: 0.4 µg/mL (≈ 1.46 µM)
[1]
  MIC90: 0.125 µg/mL (≈ 0.457 µM)

## CCCCc1c([N+](=O)[O-])oc2ccc3ccccc3c12 [nNF-C12, 1-Butyl-2-nitronaphtho[2,1-b]furan]
[4]
  CC50: 73.5 µg/mL (≈ 273 µM)
[1]
  MIC90: 4 µg/mL (≈ 14.9 µM)

## Cc1c([N+](=O)[O-])oc2ccc3ccccc3c12 [nNF-C14, 1-Methyl-2-nitronaphtho[2,1-b]furan]
[1]
  MIC90: 2 µg/mL (≈ 8.8 µM)
[5]
  Selectivity index (SI): >50

## COc1ccc2c(ccc3oc([N+](=O)[O-])cc32)c1 [nNF-C16, 7-Methoxy-2-nitronaphtho[2,1-b]furan]
[4]
  CC50: 0.3 µg/mL (≈ 1.23 µM)
[1]
  MIC90: 0.0625 µg/mL (≈ 0.257 µM)

## CCc1c([N+](=O)[O-])oc2ccc3ccccc3c12 [nNF-C17, 1-Ethyl-2-nitronaphtho[2,1-b]furan]
[4]
  CC50: 55.1 µg/mL (≈ 228 µM)
[1]
  MIC90: 2 µg/mL (≈ 8.29 µM)

## COc1ccc2ccc3oc([N+](=O)[O-])cc3c2c1Br [nNF-C18, 9-Bromo-8-methoxy-2-nitronaphtho[2,1-b]furan]
[4]
  CC50: 2.2 µg/mL (≈ 6.83 µM)
[1]
  MIC90: 0.25 µg/mL (≈ 0.776 µM)

## CCOC(=O)COc1ccc2ccc3oc([N+](=O)[O-])cc3c2c1 [nNF-C20, Ethyl 2-({2-nitronaphtho[2,1-b]furan-8-yl}oxy)acetate]
[4]
  CC50: 9.3 µg/mL (≈ 29.5 µM)
[1]
  MIC: 0.25 µg/mL (≈ 0.793 µM)
